# Laboratory results from doi:10.1101/2023.01.11.523589v2 (biorxiv, 2023).
# Columns and labels:
# HiBIT-WDR5 [1] = molecular target: T1, HiBIT-WDR5 (Homo sapiens, UniProt P61964); test: cell-based; set-up: species or system HEK293T HiBIT-WDR5; conditions: HEK-293T, read-out: CETSA thermal shifts [°C]
# HiBIT-WDR5 [2] = molecular target: T1, HiBIT-WDR5; test: cell-based; set-up: species or system HEK293T HiBIT-WDR5; conditions: HEK-293T, read-out: Dmax (23-24h) at 7.5 µM in %
# [3] = molecular target: HiBIT-WDR5 (HiBIT-tagged full length WDR5) (Homo sapiens, UniProt P61964); test: in vitro NanoBRET tracer displacement; type: binding
ΔTm at 10 µM (HiBIT-WDR5 [1]) [°C],Dmax at 7.5 µM (HiBIT-WDR5 [2]) [%],IC50 [3] [µM],SMILES
13.8,69 ± 4,,Cc1ncsc1-c1ccc([C@H](C)NC(=O)[C@@H]2C[C@@H](O)CN2C(=O)[C@@H](NC(=O)CNC(=O)c2ccc(F)c(-c3ccc(N4C[C@@H](C)N(C)[C@@H](C)C4)c(NC(=O)c4c[nH]c(=O)cc4C(F)(F)F)c3)c2)C(C)(C)C)cc1 [MS67]
2.6,,,CC(=O)N[C@H](C(=O)N1C[C@H](O)C[C@H]1C(=O)NCc1ccc(-c2scnc2C)cc1)C(C)(C)C [VH032]
,,> 3,"CC(=O)N[C@H](C(=O)N1C[C@H](O)C[C@H]1C(=O)NCc1ccc(-c2scnc2C)cc1)C(C)(C)C [VH032, reference compound]"
11.6,,,Cc1ncsc1-c1ccc([C@H](C)NC(=O)[C@H]2C[C@H](O)CN2C(=O)[C@@H](NC(=O)CNC(=O)c2ccc(F)c(-c3ccc(N4C[C@@H](C)N(C)[C@@H](C)C4)c(NC(=O)c4c[nH]c(=O)cc4C(F)(F)F)c3)c2)C(C)(C)C)cc1 [MS67N]
